Target: T1, human CB2R (Homo sapiens, UniProt P34972)
T1 construct: host or cells: CHO cells
Experiment: CB2R mediated modulation of cAMP synthesis
Assay type: cell-based
Conditions: for agonistic activity: found through the use of the described assays (CB2 agonists), qualitative statement; for Emax: 0.5 h, CHO cells expressing human CB2R, cAMP inhibited by 1 uM CP55940 defined as 100%, read-out: Agonist Efficacy (%); for EC50: read-out: hCB2 cAMP EC50
How it was run: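 Forskolin (10 uM)-driven cAMP in human CB2R-expressing CHO cells, read with DiscoverX-XS kit after 30 min compound exposure at 37 °C, 1 mM IBMX, 0.25% BSA. 100% defined as forskolin cAMP relative to 1 uM CP55940 inhibition. Agonist EC50 via four-parameter logistic model.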

T1 sequence (P34972 whole entry): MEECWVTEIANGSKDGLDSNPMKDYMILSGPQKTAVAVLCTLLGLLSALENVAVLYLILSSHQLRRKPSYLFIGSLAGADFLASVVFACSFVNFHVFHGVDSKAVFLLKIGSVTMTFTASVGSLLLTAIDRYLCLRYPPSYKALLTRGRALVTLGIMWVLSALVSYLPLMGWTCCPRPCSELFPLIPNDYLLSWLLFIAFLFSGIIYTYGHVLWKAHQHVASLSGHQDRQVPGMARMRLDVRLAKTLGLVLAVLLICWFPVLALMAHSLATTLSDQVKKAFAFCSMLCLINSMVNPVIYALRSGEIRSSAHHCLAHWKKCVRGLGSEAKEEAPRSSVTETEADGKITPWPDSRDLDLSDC

SMILES | agonistic activity | Emax | EC50
O=C(Nc1cnc2ccccc2c1)N1CCCN(C(=O)C2CCOCC2)CC1 [4-(Tetrahydro-pyran-4-carbonyl)-[1,4]diazepane-1-carboxylic acid quinolin-3-ylamide] | agonistic activity | – | –
O=C(Nc1ccc(C(F)(F)F)cc1)N1CCCN(C(=O)c2ccccc2)CC1 [4-Benzoyl-[1,4]diazepane-1-carboxylic acid (4-trifluoromethyl-phenyl)-amide] | agonistic activity | – | –
CC(C)(C)c1cc(NC(=O)N2CCCN(C(=O)C3CCCCO3)CC2)no1 (stereo not drawn) [4-(Tetrahydro-pyran-2-carbonyl)-[1,4]diazepane-1-carboxylic acid (5-tert-butyl-isoxazol-3-yl)-amide] | agonistic activity | – | –
CC(C)(C)c1cc(NC(=O)N2CCCN(C(=O)C3CCCCCC3)CC2)no1 [Compound 152, 4-Cycloheptanecarbonyl-[1,4]diazepane-1-carboxylic acid (5-tert-butyl-isoxazol-3-yl)-amide] | – | 104% | 19 nM
CC(C)(C)c1cc(NC(=O)N2CCCN(C(=O)N3CCOCC3)CC2)on1 [Compound 225, 4-(Morpholine-4-carbonyl)-[1,4]diazepane-1-carboxylic acid (3-tert-butyl-isoxazol-5-yl)-amide] | – | 106% | 54 nM
Cc1nc(NC(=O)N2CCCN(C(=O)C3CCC(F)(F)CC3)CC2)sc1C(C)(C)C [Compound 169, 4-(4,4-Difluoro-cyclohexanecarbonyl)-[1,4]diazepane-1-carboxylic acid (5-tert-butyl-4-methyl-thiazol-2-yl)-amide] | – | 95% | 0.7 nM

Results, then the molecule that gave them:

agonistic activity | Emax | EC50 | SMILES
agonistic activity | – | – | CC(C)(C)c1ccc(NC(=O)N2CCCN(C(=O)CCC3CCCCC3)CC2)cc1 [4-(3-Cyclohexyl-propionyl)-[1,4]diazepane-1-carboxylic acid (4-tert-butyl-phenyl)-amide]
agonistic activity | – | – | O=C(CCC(F)(F)F)N1CCCN(C(=O)Nc2ccc3ccccc3c2)CC1 [4-(4,4,4-Trifluoro-butyryl)-[1,4]diazepane-1-carboxylic acid naphthalen-2-ylamide]
agonistic activity | – | – | CC(=O)NC1CCC(C(=O)N2CCCN(C(=O)Nc3cc(C(C)(C)C)on3)CC2)CC1 (stereo not drawn) [4-(4-Acetylamino-cyclohexanecarbonyl)-[1,4]diazepane-1-carboxylic acid (5-tert-butyl-isoxazol-3-yl)-amide]
